Tests used:
[1] = biological target: T1, Alpha-2B adrenergic receptor (Homo sapiens, UniProt P18089)
T1 sequence (P18089 whole entry): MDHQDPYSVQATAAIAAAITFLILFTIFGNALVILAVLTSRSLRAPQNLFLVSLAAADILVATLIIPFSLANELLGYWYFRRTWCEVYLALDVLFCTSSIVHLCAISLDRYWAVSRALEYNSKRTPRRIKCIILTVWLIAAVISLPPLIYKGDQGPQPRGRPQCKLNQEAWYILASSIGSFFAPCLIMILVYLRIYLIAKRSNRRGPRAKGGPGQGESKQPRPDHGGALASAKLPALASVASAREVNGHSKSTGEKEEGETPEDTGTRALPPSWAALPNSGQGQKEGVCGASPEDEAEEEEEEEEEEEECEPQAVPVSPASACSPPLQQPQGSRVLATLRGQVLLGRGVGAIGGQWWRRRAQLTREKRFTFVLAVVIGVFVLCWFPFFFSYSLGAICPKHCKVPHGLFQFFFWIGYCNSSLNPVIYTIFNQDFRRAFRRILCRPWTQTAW

Glucocorticoid receptor [2] = biological target: T2, Glucocorticoid receptor (Homo sapiens, UniProt P04150); type: functional
T2 sequence (P04150 whole entry): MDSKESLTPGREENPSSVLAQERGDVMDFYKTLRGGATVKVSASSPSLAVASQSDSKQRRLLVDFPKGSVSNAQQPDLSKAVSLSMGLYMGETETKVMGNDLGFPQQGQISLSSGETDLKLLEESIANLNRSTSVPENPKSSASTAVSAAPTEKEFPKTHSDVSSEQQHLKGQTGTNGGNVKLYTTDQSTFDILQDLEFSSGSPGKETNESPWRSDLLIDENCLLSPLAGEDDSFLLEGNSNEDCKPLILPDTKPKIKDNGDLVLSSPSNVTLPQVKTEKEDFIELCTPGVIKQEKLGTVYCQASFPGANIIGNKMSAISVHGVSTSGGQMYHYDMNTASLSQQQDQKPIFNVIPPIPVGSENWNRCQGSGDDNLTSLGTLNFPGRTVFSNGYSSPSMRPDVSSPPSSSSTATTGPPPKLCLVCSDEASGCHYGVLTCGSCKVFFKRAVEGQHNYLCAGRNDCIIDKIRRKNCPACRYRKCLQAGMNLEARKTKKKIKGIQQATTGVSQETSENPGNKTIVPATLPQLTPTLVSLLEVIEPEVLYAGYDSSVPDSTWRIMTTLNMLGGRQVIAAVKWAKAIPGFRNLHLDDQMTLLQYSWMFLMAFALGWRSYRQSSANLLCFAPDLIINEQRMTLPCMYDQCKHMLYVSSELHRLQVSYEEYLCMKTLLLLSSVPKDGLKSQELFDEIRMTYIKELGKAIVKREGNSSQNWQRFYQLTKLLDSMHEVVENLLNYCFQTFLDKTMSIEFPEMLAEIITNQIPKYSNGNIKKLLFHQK

Glucocorticoid receptor [3] = biological target: T2, Glucocorticoid receptor; type: functional; remark: listed apart in the source
[4] = biological target: T3, Peroxisome proliferator-activated receptor gamma (Homo sapiens, UniProt P37231); type: functional
T3 sequence (P37231 whole entry): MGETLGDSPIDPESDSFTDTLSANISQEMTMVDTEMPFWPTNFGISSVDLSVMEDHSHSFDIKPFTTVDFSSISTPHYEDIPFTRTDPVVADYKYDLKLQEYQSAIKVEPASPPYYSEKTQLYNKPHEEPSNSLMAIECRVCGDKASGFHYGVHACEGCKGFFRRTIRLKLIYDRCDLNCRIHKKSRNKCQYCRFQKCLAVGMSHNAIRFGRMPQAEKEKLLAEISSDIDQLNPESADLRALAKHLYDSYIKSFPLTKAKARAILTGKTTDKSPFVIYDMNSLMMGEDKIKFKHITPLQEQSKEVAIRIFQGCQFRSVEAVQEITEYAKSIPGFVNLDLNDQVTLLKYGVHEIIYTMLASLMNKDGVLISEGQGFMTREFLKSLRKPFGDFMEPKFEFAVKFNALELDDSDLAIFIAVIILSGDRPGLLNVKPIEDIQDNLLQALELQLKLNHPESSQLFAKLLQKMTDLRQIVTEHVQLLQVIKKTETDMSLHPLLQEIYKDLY

[5] = biological target: Beta-2 adrenergic receptor (Homo sapiens, UniProt P07550)
Beta-2 adrenergic receptor, sequence (P07550 whole entry): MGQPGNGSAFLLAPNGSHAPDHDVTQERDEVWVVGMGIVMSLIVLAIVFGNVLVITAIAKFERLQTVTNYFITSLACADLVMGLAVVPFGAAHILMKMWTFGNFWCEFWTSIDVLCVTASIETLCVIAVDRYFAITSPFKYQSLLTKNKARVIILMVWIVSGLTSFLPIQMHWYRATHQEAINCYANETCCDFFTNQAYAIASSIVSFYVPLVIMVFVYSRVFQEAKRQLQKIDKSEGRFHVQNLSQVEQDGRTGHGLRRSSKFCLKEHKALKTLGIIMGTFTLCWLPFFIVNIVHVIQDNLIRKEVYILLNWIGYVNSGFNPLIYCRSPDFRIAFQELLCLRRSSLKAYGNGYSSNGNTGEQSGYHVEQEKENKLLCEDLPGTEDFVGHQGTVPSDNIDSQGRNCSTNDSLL

[6] = biological target: Voltage-dependent N-type calcium channel subunit alpha-1B (Rattus norvegicus, UniProt Q02294); type: functional
Voltage-dependent N-type calcium channel subunit alpha-1B, sequence (Q02294 whole entry): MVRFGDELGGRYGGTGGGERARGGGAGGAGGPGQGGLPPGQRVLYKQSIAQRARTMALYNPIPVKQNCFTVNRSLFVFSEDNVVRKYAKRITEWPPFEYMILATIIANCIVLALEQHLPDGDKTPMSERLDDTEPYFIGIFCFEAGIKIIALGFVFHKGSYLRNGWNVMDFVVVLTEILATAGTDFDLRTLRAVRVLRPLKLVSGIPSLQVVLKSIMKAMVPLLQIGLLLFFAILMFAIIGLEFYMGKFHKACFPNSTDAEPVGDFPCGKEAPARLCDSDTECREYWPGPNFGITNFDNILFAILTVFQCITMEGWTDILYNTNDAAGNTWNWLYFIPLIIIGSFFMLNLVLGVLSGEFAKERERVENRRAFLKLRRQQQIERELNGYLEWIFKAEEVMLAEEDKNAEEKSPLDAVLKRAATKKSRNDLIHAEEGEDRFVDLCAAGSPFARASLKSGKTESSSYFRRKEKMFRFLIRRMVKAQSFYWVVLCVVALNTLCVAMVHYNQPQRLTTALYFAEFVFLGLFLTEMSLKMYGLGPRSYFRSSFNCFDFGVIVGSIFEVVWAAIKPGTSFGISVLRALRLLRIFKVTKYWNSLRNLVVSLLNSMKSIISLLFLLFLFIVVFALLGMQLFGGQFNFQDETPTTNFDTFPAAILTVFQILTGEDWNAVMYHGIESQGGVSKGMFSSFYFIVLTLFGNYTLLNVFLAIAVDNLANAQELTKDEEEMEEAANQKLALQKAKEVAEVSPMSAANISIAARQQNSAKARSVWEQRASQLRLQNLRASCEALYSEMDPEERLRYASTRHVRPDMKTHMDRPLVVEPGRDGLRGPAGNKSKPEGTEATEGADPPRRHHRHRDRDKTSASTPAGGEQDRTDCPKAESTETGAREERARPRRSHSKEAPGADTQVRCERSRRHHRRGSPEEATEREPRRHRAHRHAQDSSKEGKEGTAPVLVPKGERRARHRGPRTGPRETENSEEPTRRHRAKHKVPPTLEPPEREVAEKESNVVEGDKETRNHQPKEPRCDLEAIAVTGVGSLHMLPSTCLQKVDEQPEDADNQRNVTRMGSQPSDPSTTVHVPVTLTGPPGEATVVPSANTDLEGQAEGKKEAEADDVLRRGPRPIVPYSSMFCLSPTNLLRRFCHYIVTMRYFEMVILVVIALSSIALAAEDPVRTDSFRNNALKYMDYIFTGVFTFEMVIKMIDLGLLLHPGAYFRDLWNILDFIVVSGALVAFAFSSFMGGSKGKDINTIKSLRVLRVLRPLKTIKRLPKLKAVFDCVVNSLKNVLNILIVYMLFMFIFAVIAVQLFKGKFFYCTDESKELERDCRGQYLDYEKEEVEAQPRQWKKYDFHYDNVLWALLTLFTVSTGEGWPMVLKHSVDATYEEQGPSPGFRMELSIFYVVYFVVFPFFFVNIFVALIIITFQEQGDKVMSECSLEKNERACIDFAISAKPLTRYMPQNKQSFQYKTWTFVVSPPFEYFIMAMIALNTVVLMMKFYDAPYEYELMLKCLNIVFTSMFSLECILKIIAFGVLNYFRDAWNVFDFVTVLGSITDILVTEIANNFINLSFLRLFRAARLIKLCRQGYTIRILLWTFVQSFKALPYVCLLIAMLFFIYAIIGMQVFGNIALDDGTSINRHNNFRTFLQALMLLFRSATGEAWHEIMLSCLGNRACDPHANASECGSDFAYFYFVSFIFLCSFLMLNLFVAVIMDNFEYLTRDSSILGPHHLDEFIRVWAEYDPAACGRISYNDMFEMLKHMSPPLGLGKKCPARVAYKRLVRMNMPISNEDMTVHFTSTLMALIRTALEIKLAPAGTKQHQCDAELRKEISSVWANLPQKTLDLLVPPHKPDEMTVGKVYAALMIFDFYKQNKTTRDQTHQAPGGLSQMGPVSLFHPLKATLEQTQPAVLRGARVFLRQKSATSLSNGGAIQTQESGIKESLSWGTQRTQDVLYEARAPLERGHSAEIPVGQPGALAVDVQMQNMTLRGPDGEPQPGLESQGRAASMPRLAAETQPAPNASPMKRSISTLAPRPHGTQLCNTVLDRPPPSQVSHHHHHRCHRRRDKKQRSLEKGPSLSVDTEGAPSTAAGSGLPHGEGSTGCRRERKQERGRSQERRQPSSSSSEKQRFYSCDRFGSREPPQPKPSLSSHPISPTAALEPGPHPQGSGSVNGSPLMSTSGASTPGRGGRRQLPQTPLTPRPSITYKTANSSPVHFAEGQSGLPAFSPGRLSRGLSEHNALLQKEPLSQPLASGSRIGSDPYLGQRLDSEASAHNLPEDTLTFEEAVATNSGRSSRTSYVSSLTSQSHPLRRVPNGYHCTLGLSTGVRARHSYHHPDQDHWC

[7] = biological target: 5-hydroxytryptamine receptor 2B (Homo sapiens, UniProt P41595)
5-hydroxytryptamine receptor 2B, sequence (P41595 whole entry): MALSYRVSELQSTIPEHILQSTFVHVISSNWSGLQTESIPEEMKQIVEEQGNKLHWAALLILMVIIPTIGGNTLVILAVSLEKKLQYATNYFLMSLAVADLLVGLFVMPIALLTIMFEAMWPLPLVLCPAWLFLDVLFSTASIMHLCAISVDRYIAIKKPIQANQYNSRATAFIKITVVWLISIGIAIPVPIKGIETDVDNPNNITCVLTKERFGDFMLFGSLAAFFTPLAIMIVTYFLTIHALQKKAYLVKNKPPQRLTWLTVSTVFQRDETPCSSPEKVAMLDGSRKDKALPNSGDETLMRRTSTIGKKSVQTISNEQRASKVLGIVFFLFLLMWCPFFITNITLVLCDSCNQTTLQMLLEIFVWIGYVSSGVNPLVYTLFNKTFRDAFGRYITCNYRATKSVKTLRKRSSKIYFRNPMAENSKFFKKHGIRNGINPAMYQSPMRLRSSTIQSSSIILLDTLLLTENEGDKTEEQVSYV

[8] = biological target: T4, 5-hydroxytryptamine receptor 1A (Homo sapiens, UniProt P08908)
T4 sequence (P08908 whole entry): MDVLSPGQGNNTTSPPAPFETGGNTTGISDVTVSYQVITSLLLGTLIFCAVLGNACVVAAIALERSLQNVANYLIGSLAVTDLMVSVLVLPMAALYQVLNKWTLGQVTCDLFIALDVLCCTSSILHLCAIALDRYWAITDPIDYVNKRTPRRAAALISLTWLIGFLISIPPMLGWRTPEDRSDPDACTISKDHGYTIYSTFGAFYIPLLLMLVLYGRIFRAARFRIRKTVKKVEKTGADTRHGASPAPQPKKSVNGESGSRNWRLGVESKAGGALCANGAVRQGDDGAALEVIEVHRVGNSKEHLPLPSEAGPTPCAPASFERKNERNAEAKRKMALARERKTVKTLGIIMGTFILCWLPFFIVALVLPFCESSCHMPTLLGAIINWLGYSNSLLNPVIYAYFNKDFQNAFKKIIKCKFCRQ

[9] = biological target: T5, Muscarinic acetylcholine receptor M2 (Homo sapiens, UniProt P08172)
T5 sequence (P08172 whole entry): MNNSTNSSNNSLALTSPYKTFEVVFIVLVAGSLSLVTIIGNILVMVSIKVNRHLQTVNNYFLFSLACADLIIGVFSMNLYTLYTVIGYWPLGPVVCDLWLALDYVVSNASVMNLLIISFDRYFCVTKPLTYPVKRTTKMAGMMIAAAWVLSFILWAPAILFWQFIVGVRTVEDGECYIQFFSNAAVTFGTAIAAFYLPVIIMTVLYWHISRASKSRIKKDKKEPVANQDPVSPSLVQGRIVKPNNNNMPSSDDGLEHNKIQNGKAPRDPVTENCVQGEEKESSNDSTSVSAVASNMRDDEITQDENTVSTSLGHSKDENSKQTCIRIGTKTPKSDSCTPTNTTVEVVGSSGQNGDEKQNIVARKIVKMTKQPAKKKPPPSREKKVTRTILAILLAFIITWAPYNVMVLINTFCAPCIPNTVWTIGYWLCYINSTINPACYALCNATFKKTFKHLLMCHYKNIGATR
Also: assay procedure not described here.

Row | Structure (SMILES) | AC50 [1] | AC50 [5] | AC50 [7] | AC50 [8] | AC50 [9] | other results
1 | CC(=N)N1CC[C@H](SC2=C(C(=O)O)N3C(=O)[C@H]([C@@H](C)O)[C@H]3C2)C1 | 300 µM | – | – | – | – | AC50 (Glucocorticoid receptor [2]): > 300 µM; AC50 (Glucocorticoid receptor [3]): > 300 µM; AC50 [4]: > 300 µM
2 | CC(/C=C1\SC(=S)N(CC(=O)O)C1=O)=C\c1ccccc1 | – | > 30 µM | – | – | – | –
3 | CC1(C)S[C@@H]2[C@H](NC(=O)[C@H](N)c3ccc(O)cc3)C(=O)N2[C@H]1C(=O)O [AMOXICILLIN] | – | > 30 µM | > 10 µM | > 10 µM | > 10 µM | AC50 [6]: > 10 µM
4 | O=C1CN2Cc3c(ccc(Cl)c3Cl)N=C2N1 [ANAGRELIDE] | > 10 µM | > 10 µM | – | > 10 µM | – | –
5 | CNCC[C@@H](Oc1ccccc1C)c1ccccc1 [ATOMOXETINE] | 23 µM | – | – | – | – | –
6 | CCc1oc2ccccc2c1C(=O)c1cc(Br)c(O)c(Br)c1 [BENZBROMARONE] | – | > 30 µM | – | > 10 µM | 0.0373 µM | AC50 (Glucocorticoid receptor [2]): > 30 µM; AC50 (Glucocorticoid receptor [3]): > 30 µM
7 | C=C(C)[C@@H]1CCC(C)=C[C@H]1c1c(O)cc(CCCCC)cc1O [CANNABIDIOL] | > 30 µM | – | – | – | – | AC50 (Glucocorticoid receptor [2]): > 30 µM; AC50 (Glucocorticoid receptor [3]): > 30 µM
8 | CO/N=C(\C(=O)N[C@@H]1C(=O)N2C(C(=O)O)=C(COC(N)=O)CS[C@H]12)c1ccco1 [CEFUROXIME] | > 30 µM | – | – | – | – | AC50 [4]: > 30 µM
9 | [H]/N=C(\N/C(=N/[H])NCCCCCCNC(=N)NC(=N)Nc1ccc(Cl)cc1)Nc1ccc(Cl)cc1 [CHLORHEXIDINE] | 2.4 µM | 6.5 µM | 0.683 µM | – | – | –
10 | Clc1cccc(Cl)c1N=C1NCCN1 [CLONIDINE] | – | – | > 10 µM | > 10 µM | > 10 µM | AC50 [6]: > 10 µM
11 | CN1C[C@H](C(=O)N[C@]2(C)O[C@@]3(O)[C@@H]4CCCN4C(=O)[C@H](Cc4ccccc4)N3C2=O)C[C@@H]2c3cccc4[nH]cc(c34)C[C@H]21 [DIHYDROERGOTAMINE] | – | – | 0.0638 µM | 0.0126 µM | > 10 µM | AC50 [6]: > 10 µM
12 | CNCC[C@H](Oc1cccc2ccccc12)c1cccs1 [DULOXETINE] | 3.9 µM | – | – | – | – | –
13 | CC1(C)O[C@@H]2C[C@H]3[C@@H]4C[C@H](F)C5=CC(=O)C=C[C@]5(C)[C@H]4[C@@H](O)C[C@]3(C)[C@]2(C(=O)CO)O1 [FLUNISOLIDE] | – | – | – | – | – | AC50 (Glucocorticoid receptor [2]): 0.021 µM; AC50 (Glucocorticoid receptor [3]): > 30 µM; AC50 [4]: > 30 µM
14 | CCC(=O)O[C@@H](O[P@](=O)(CCCCc1ccccc1)CC(=O)N1C[C@H](C2CCCCC2)C[C@H]1C(=O)O)C(C)C [FOSINOPRIL] | > 30 µM | – | – | – | – | –
15 | Nc1nc(O)c2ncn(COC(CO)CO)c2n1 [GANCICLOVIR] | – | > 30 µM | – | – | – | –
16 | Cc1cnc(NC(=O)C2=C(O)c3ccccc3S(=O)(=O)N2C)s1 [MELOXICAM] | – | > 10 µM | > 10 µM | > 10 µM | > 10 µM | AC50 [6]: > 10 µM
17 | CC(=O)/N=c1/sc(S(N)(=O)=O)nn1C [METHAZOLAMIDE] | > 10 µM | > 10 µM | – | – | – | –

Row | Structure (SMILES) | AC50 [1] | AC50 [5] | AC50 [7] | AC50 [8] | AC50 [9] | other results
18 | CC[C@@H](CO)NC(=O)[C@@H]1C=C2c3cccc4[nH]cc(c34)C[C@H]2N(C)C1 [METHYLERGONOVINE] | – | – | 0.0037 µM | – | – | –
19 | CC(=O)Oc1ccccc1C(=O)Nc1ncc([N+](=O)[O-])s1 [NITAZOXANIDE] | 8 µM | 7.8 µM | – | – | – | –
20 | CNCCC=C1c2ccccc2CCc2ccccc21 [NORTRIPTYLINE] | – | – | – | – | 0.632 µM | –
21 | CN(C)c1cc(CNCC(C)(C)C)c(O)c2c1C[C@H]1C[C@H]3[C@H](N(C)C)C(O)=C(C(N)=O)C(=O)[C@@]3(O)C(O)=C1C2=O [OMADACYCLINE] | 30 µM | – | – | – | 4.25 µM | AC50 [4]: > 30 µM
22 | COc1ccnc(C[S+]([O-])c2nc3ccc(OC(F)F)cc3[nH]2)c1OC (stereo unspecified) [PANTOPRAZOLE] | – | > 10 µM | > 10 µM | > 10 µM | > 10 µM | AC50 [6]: > 10 µM
23 | CNC[C@H](O)c1cccc(O)c1 [PHENYLEPHRINE] | – | – | > 10 µM | > 10 µM | > 10 µM | AC50 [6]: > 10 µM
24 | CNC(=O)c1cc(Oc2ccc(NC(=O)Nc3ccc(Cl)c(C(F)(F)F)c3)c(F)c2)ccn1 [REGORAFENIB] | – | – | – | – | – | AC50 (Glucocorticoid receptor [2]): > 30 µM; AC50 (Glucocorticoid receptor [3]): 17 µM
25 | NC(=O)c1ncn([C@@H]2O[C@H](CO)[C@@H](O)[C@H]2O)n1 [RIBAVIRIN] | – | > 10 µM | – | – | – | –
26 | O=C(Nc1c(Cl)cncc1Cl)c1ccc(OC(F)F)c(OCC2CC2)c1 [ROFLUMILAST] | > 30 µM | > 30 µM | – | – | – | –
27 | CC[C@H]1OC(=O)[C@H](C)[C@@H](O[C@H]2C[C@@](C)(OC)[C@@H](O)[C@H](C)O2)[C@H](C)[C@@H](O[C@@H]2O[C@H](C)C[C@H](N(C)C)[C@H]2O)[C@](C)(O)C[C@@H](C)/C(=N\OCOCCOC)[C@H](C)[C@@H](O)[C@]1(C)O [ROXITHROMYCIN] | – | – | – | – | – | AC50 (Glucocorticoid receptor [2]): > 30 µM; AC50 (Glucocorticoid receptor [3]): > 30 µM; AC50 [4]: > 30 µM
28 | CC(C)N(CCCCOCC(=O)NS(C)(=O)=O)c1cnc(-c2ccccc2)c(-c2ccccc2)n1 [SELEXIPAG] | > 30 µM | > 30 µM | – | – | – | –
29 | CCCCNc1ccc(C(=O)OCCN(C)C)cc1 [TETRACAINE] | – | > 10 µM | 1.42 µM | > 10 µM | > 10 µM | AC50 [6]: > 10 µM
30 | Cn1c(=O)c2[nH]cnc2n(C)c1=O [THEOPHYLLINE] | – | > 10 µM | – | > 10 µM | > 10 µM | AC50 [6]: > 10 µM
31 | CN1CCN(CCCN2c3ccccc3Sc3ccc(S(=O)(=O)N(C)C)cc32)CC1 [THIOPROPERAZINE] | 0.15 µM | – | – | – | – | –
32 | CC1(C)O[C@@H]2[C@@H](CO[C@@]3(COS(N)(=O)=O)OC(C)(C)O[C@@H]23)O1 [TOPIRAMATE] | > 10 µM | > 10 µM | > 10 µM | > 10 µM | > 10 µM | AC50 [6]: > 10 µM
33 | Cc1cc(CC(=O)O)n(C)c1C(=O)c1ccc(Cl)cc1 [ZOMEPIRAC] | > 30 µM | – | – | – | – | –

From ChEMBL document CHEMBL5291721, “A preclinical secondary pharmacology resource illuminates target-adverse drug reaction associations of marketed drugs” (Nat Commun, 2023)
